Source: PMC12040169 (PLOS Biology, 2025)

experiment: in vitro; settings: human, hela cells, % viability

SMILES | viability at 28.5 h, 10 µM
CCCCCNC(=N)NC1Cc2ccccc2C1 [CBK036321T] | 98.8%
O=C(Nc1ccccc1N1CCCNCC1)c1ccnc2ccccc12 [CBK036325T] | 83.4%
CCOc1ccsc1C(=O)Nc1cc2ccccc2c(N2CCNCC2)n1 [CBK036341T] | 99.3%
CCOc1ccsc1C(=O)Nc1ccccc1N1CCCNCC1 [CBK036354T] | 95.7%
O=C(NCc1ccc(OC2CCNCC2)cc1)c1cnccn1 [CBK036359T] | 104%
Cn1cccc1C(=O)NCc1ccc(OC2CCNCC2)cc1 [CBK036360T] | 93%
COc1ccc(C(=O)Nc2cncc(OC3CCNCC3)n2)cc1 [CBK036370T] | 94.4%
N#Cc1ccc(C(=O)Nc2cncc(OC3CCNCC3)n2)cc1 [CBK036371T] | 90.6%
Cc1cc(C)cc(S(=O)(=O)c2ccc3ccnc(N4CCCNCC4)c3c2)c1 [CBK036413C] | 87.1%
O=S(=O)(c1ccc(Cl)cc1)c1ccc2ccnc(N3CCCNCC3)c2c1 [CBK036416C] | 82.9%
COc1ccc([C@@]23CC[C@@H](NC(=O)Nc4cccc(C#N)c4)C[C@@H]2N(C)CC3)cc1OC [CBK036448T] | 103%
COc1ccc([C@@]23CC[C@@H](NC(=O)Nc4ccc(OC(F)(F)F)cc4)C[C@@H]2N(C)CC3)cc1OC [CBK036455T] | 82.2%
COc1ccc([C@@]23CC[C@@H](NC(=O)Nc4ccc(F)cc4)C[C@@H]2N(C)CC3)cc1OC [CBK036458T] | 93.5%
COc1ccc([C@@]23CC[C@@H](NC(=O)Nc4cccc(SC)c4)C[C@@H]2N(C)CC3)cc1OC [CBK036459T] | 91.1%
COc1ccc(NC(=O)N[C@@H]2CC[C@@]3(c4ccc(OC)c(OC)c4)CCN(C)[C@H]3C2)c(C)c1 [CBK036460T] | 97.2%
COc1ccc([C@@]23CC[C@@H](NC(=O)Nc4ccc(C(C)(C)C)cc4)C[C@@H]2N(C)CC3)cc1OC [CBK036469T] | 92%
COc1ccc([C@@]23CC[C@@H](NC(=O)Nc4cc(C)c(C)cc4[N+](=O)[O-])C[C@@H]2N(C)CC3)cc1OC [CBK036478T] | 67.8%

SMILES | viability at 28.5 h, 10 µM
O=S(=O)(c1ccc(Cl)c(Cl)c1)c1ccc2nccc(N3CCNCC3)c2c1 [CBK036497C] | 84.8%
COc1ccc([C@@]23CC[C@@H](NC(=O)Nc4cc(C)ccc4F)C[C@@H]2N(C)CC3)cc1OC [CBK036509T] | 102%
COc1cc(C)c(NC(=O)c2cnc(-c3ccc(F)cc3)c(-c3ccncc3)c2)cc1OC [CBK036575] | 97.5%
OCCNc1nccnc1-c1ccoc1 [CBK036580] | 106%
CN(C)C(=O)c1cccc(-c2nccnc2NCCO)c1 [CBK036582] | 90.3%
CN(C)CCN1CCN(c2nc(-c3ccc4[nH]ccc4c3)cn3ccnc23)CC1 [CBK036587] | 102%
CC(=O)Nc1cccc(-c2nccnc2N2CCCCC2CCO)c1 (stereo not shown) [CBK036591] | 101%
c1csc(CNc2nccnc2-c2ccoc2)c1 [CBK036599] | 107%
c1csc(CNc2nccnc2-c2cccs2)c1 [CBK036602] | 92.6%
CC(=O)Nc1cccc(-c2cn3ccnc3c(N[C@@H](CO)C(C)C)n2)c1 [CBK036605] | 106%
CCC(CO)Nc1nccnc1-c1ccsc1 (stereo not shown) [CBK036606] | 107%
CCC(CO)Nc1nccnc1-c1ccc(CO)cc1 (stereo not shown) [CBK036607] | 93%
COc1cc(Nc2nc(-c3cccc4ccccc34)cn3ccnc23)cc(OC)c1OC [CBK036608] | 96.1%
OCCN(CCO)c1nccnc1-c1ccccc1F [CBK036610] | 106%
CN1CCN(c2nccnc2-c2cccnc2)CC1 [CBK036612] | 89.8%
CC(=O)c1ccc(-c2cc(C(=O)NCCc3cccnc3)cnc2-c2ccc(F)cc2)s1 [CBK036614] | 102%
Clc1cccc(CNc2nccnc2-c2ccoc2)c1 [CBK036616] | 105%
